# Results from article PMC8540948, “Design and Synthesis of Newly Synthesized Acrylamide Derivatives as Potential Chemotherapeutic Agents against MCF-7 Breast Cancer Cell Line Lodged on PEGylated Bilosomal Nano-Vesicles for Improving Cytotoxic Activity” (Pharmaceuticals, 2021).
# Tests used:
# [1] = test system: breast cancer MCF-7 cell line; experiment: MTT cytotoxicity against breast cancer MCF-7 cell line; format: cell-based; conditions: MTT assay, 24 h drug treatment
# Method: Compounds 2–5d were evaluated for their cytotoxic activities against breast cancer MCF-7 cell line by using an MTT colorimetric assay. Cisplatin was used as reference drug in this study. […] Additionally, the therapeutic safety of N-(3-hydroxy-4-methoxy) aryl amide derivative 4e was determined by screening its cytotoxic activity against normal breast cell line (MCF-10A) using an MTT colorimetric assay. […]
# (§1) Cytotoxic activity of the newly prepared acrylamide derivatives 2–5d were carried out against breast MCF-7 cancer cell line using the MTT assay method. Compound 4e was screened for its effects on normal breast cell line MCF-10A. Cells at density of 1 × 10^4 were seeded in a 96-well plate at 37 °C for 48 h under 5% CO2. After incubation, the cells were treated with different concentrations of the test compounds and incubated for 24 h. After 24 h of drug treatment, 20 μL of MTT solution at 5 mg/mL was applied and incubated for 4 h at 37 °C. Dimethyl sulphoxide (DMSO) in volume of 100 µL was added to each well to dissolve the purple formazan that had formed. The color intensity of the formazan product, which represents the growth condition of the cells, is quantified by using an ELISA plate reader (EXL 800, USA) at 570 nm absorbance. The experimental conditions were carried out with at least three replicates, and the experiments were repeated at least three times.
# [2] = test system: normal breast cell line (MCF-10A); experiment: MTT cytotoxicity against normal breast cell line MCF-10A; format: cell-based; conditions: MTT assay
# Method: Compounds 2–5d were evaluated for their cytotoxic activities against breast cancer MCF-7 cell line by using an MTT colorimetric assay. Cisplatin was used as reference drug in this study. […] Additionally, the therapeutic safety of N-(3-hydroxy-4-methoxy) aryl amide derivative 4e was determined by screening its cytotoxic activity against normal breast cell line (MCF-10A) using an MTT colorimetric assay.
# as §1
# MCF-7 cells = experiment: Cell cycle analysis by DNA flow cytometry; format: cell-based; conditions: MCF-7, 48 h, 4e at IC50 (2.11 μM), PTX 0.1 μM
# Method: In order to study the mechanism of the cytotoxic activity of compound 4e, cell cycle analysis was investigated in breast cancer MCF-7 cells by DNA flow cytometry analysis at IC50 dose values of compound 4e for 48 h. Paclitaxel (PTX, 0.1 μM) was used as the reference drug in this study.
# MCF-7 cells (2 × 10^5/well) were harvested and washed twice in PBS. After that, the cells were incubated at 37 °C and 5% CO2. The medium was replaced with DMSO 1% v/v containing the tested compound 4e (2.11 μM) and PTX (0.1 μM), then incubated for 48 h, washed twice in PBS, fixed with 70% ethanol, rinsed again with PBS and then stained with DNA fluorochrome PI for 15 min at 37 °C. The samples were analyzed by flow cytometry on a FACS Calibur flow cytometer (Becton and Dickinson, Heidelberg, Germany).
# β-tubulin = β-tubulin inhibition percentage by ELISA (tubulin polymerization inhibition); format: biochemical; conditions: 5 μM concentration
# tubulin assembly = test system: tubulin assembly; parameters: method as in PMID 25721862; conditions: cited from earlier work
SMILES,melting point [°C],"IC50 ([1]; Homo sapiens, MCF7, 24 h) [µM]",further results
"N.N.[Cl][Pt][Cl] [Cisplatin, reference compound]",–,–,IC50 [1]: 1.02 ± 0.12 µM; IC50 [2]: 22.62 ± 0.19 µM
"CCOC(=O)C(=Cc1ccco1)NC(=O)c1cc(OC)c(OC)c(OC)c1 [Compound 2, Ethyl 3-(Furan-2-yl)-2-(3,4,5-trimethoxybenzamido)acrylate]",126 to 128,> 50,–
"COc1cc(C(=O)NC(=Cc2ccco2)C(=O)NC(C)C)cc(OC)c1OC [Compound 3, N-[1-(Furan-2-yl)-3-(isopropylamino)-3-oxoprop-1-en-2-yl]-3,4,5-trimethoxybenzamide]",168 to 170,4.73 ± 0.27,–
"COc1cc(C(=O)NC(=Cc2ccco2)C(=O)Nc2ccccc2C)cc(OC)c1OC [Compound 4a, N-[1-(Furan-2-yl)-3-oxo-3-(o-tolylamino)prop-1-en-2-yl]-3,4,5-trimethoxybenzamide]",222 to 224,27.3 ± 1.21,–
"COc1ccc(NC(=O)C(=Cc2ccco2)NC(=O)c2cc(OC)c(OC)c(OC)c2)cc1 [Compound 4c, N-[1-(Furan-2-yl)-3-(4-methoxyphenylamino)-3-oxoprop-1-en-2-yl]-3,4,5-trimethoxybenzamide]",249 to 251,26.2 ± 1.21,–
"COc1cc(C(=O)NC(=Cc2ccco2)C(=O)Nc2ccc(O)cc2)cc(OC)c1OC [Compound 4d, N-[1-(Furan-2-yl)-3-(4-hydroxyphenylamino)-3-oxoprop-1-en-2-yl]-3,4,5-trimethoxybenzamide]",214 to 216,18.4 ± 1.14,–
"COc1ccc(NC(=O)C(=Cc2ccco2)NC(=O)c2cc(OC)c(OC)c(OC)c2)cc1O [Compound 4e, N-[1-(Furan-2-yl)-3-(3-hydroxy-4-methoxyphenylamino)-3-oxoprop-1-en-2-yl]-3,4,5-trimethoxybenzamide]",–,2.11 ± 0.19,percentage of cells in pre-G1 phase (MCF-7 cells; untreated control 1.73%): 24.62%; percentage of cells in G2/M phase (MCF-7 cells; untreated control 8.39%): 42.50%; β-tubulin inhibition percentage (β-tubulin): 89%; IC50 ([2]; Homo sapiens): 29.3 ± 1.21 µM
COc1ccc(C(=O)/C=C/c2cc(C(=O)c3cc(OC)c(OC)c(OC)c3)ccc2OC)cc1N [Compound IV],–,–,IC50 (tubulin assembly): 0.6 µM

# Now from value to compound, other results behind:
melting point [°C],SMILES,"IC50 ([1]; Homo sapiens, MCF7, 24 h) [µM]",further results
217 to 219,"COc1cc(C(=O)NC(=Cc2ccco2)C(=O)Nc2cccc(C)c2)cc(OC)c1OC [Compound 4b, N-[1-(Furan-2-yl)-3-oxo-3-(m-tolylamino)prop-1-en-2-yl]-3,4,5-trimethoxybenzamide]",10.4 ± 1.09,–
175 to 177,"COc1cc(C(=O)NC(=Cc2ccco2)C(=O)NCc2cccc(C)c2)cc(OC)c1OC [Compound 5a, N-[1-(Furan-2-yl)-3-((3-methylbenzyl)amino)-3-oxoprop-1-en-2-yl]-3,4,5-trimethoxybenzamide]",3.92 ± 0.21,–
166 to 168,"COc1ccccc1CNC(=O)C(=Cc1ccco1)NC(=O)c1cc(OC)c(OC)c(OC)c1 [Compound 5b, N-[1-(Furan-2-yl)-3-((2-methoxybenzyl)amino)-3-oxoprop-1-en-2-yl]-3,4,5-trimethoxybenzamide]",5.03 ± 1.01,–
164 to 166,"COc1cccc(CNC(=O)C(=Cc2ccco2)NC(=O)c2cc(OC)c(OC)c(OC)c2)c1 [Compound 5c, N-[1-(Furan-2-yl)-3-(3-methoxybenzylamino)-3-oxoprop-1-en-2-yl]-3,4,5-trimethoxybenzamide]",2.61,IC50 [1]: 3.03 ± 0.39 µM
124 to 126,"COc1ccc(CNC(=O)C(=Cc2ccco2)NC(=O)c2cc(OC)c(OC)c(OC)c2)cc1OC [Compound 5d, N-[3-((3,4-Dimethoxybenzyl)amino)-1-(furan-2-yl)-3-oxoprop-1-en-2-yl]-3,4,5-trimethoxybenzamide]",2.61 ± 0.32,–
